Laboratory results taken from patent US9179678B2, “Substituted [1,2,4]triazoles and substituted tetrazoles as herbicides” (SYNGENTA LIMITED, priority 2012, dated 2015).

Experiments:
Type in all cases: in vivo
Setaria faberi (SETFA) [1] = experiment: Post-emergence glasshouse herbicide test; details: POST Application, 1000 g/h, after 13 days
In short: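 This post-emergence glasshouse herbicide test used SETFA plants raised in pots of standard soil for 8 days under controlled conditions (24/16° C., 14 hours light, 65% humidity). An aqueous spray made from acetone/water (50:50) with 0.5% Tween 20 was applied. Plants were watered twice daily, and percentage plant damage was assessed 13 days later.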

Solanum nigrum (SOLNI) [2] = experiment: Pre-emergence glasshouse herbicide test; details: PRE Application, 1000 g/h, after 13 days
[3] = test system: Ipomoea hederacea (IPOHE); experiment: Pre-emergence glasshouse herbicide test; details: PRE Application, 1000 g/h, after 13 days
Setaria faberi (SETFA) [4] = experiment: Pre-emergence glasshouse herbicide test; details: PRE Application, 1000 g/h, after 13 days
[5] = test system: Amaranthus retoflexus (AMARE); experiment: Pre-emergence glasshouse herbicide test; details: PRE Application, 1000 g/h, after 13 days
[6] = test system: Echinochloa crus-galli (ECHCG); experiment: Pre-emergence glasshouse herbicide test; details: PRE Application, 1000 g/h, after 13 days
[7] = test system: Alopecurus myosuroides (ALOMY); experiment: Pre-emergence glasshouse herbicide test; details: PRE Application, 1000 g/h, after 13 days
In short: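 This pre-emergence glasshouse test used pots of standard soil sown with ALOMY seed and cultivated for one day under controlled conditions of 24/16° C., 14 hours light and 65% humidity. An aqueous spray from an acetone/water (50:50) formulation with 0.5% Tween 20 was applied. After 13 days of further growth with twice-daily watering, plant damage was rated as a percentage.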

Solanum nigrum (SOLNI) [8] = experiment: Post-emergence glasshouse herbicide test; details: POST Application, 1000 g/h, after 13 days
In short: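 This glasshouse post-emergence herbicide test used Solanum nigrum plants sown in standard soil and cultivated for 8 days under controlled conditions (24/16° C. day/night, 14 hours light, 65% humidity). An aqueous spray from an acetone/water (50:50) solution with 0.5% Tween 20 was applied. Plants were watered twice daily, and damage to each plant was assessed as a percentage 13 days later.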

[9] = test system: Ipomoea hederacea (IPOHE); experiment: Post-emergence glasshouse herbicide test; details: POST Application, 1000 g/h, after 13 days
[10] = test system: Amaranthus retoflexus (AMARE); experiment: Post-emergence glasshouse herbicide test; details: POST Application, 1000 g/h, after 13 days
[11] = test system: Echinochloa crus-galli (ECHCG); experiment: Post-emergence glasshouse herbicide test; details: POST Application, 1000 g/h, after 13 days
[12] = test system: Alopecurus myosuroides (ALOMY); experiment: Post-emergence glasshouse herbicide test; details: POST Application, 1000 g/h, after 13 days
In short: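 In this glasshouse post-emergence test, ALOMY plants were cultivated in standard soil for 8 days under controlled conditions (24/16° C. day/night, 14 hours light, 65% humidity). They were then treated with a spray derived from an acetone/water (50:50) formulation with 0.5% Tween 20, grown on with watering twice daily, and rated for percentage damage after 13 days.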

| SMILES | percentage damage caused to the plant, SETFA (Setaria faberi (SETFA) [1]) | percentage damage caused to the plant, SOLNI (Solanum nigrum (SOLNI) [2]) | percentage damage caused to the plant, IPOHE [3] | percentage damage caused to the plant, SETFA (Setaria faberi (SETFA) [4]) | percentage damage caused to the plant, AMARE [5] | percentage damage caused to the plant, ECHCG [6] | percentage damage caused to the plant, ALOMY [7] | percentage damage caused to the plant, SOLNI (Solanum nigrum (SOLNI) [8]) | percentage damage caused to the plant, IPOHE [9] | percentage damage caused to the plant, AMARE [10] | percentage damage caused to the plant, ECHCG [11] | percentage damage caused to the plant, ALOMY [12] |
| --- | --- | --- | --- | --- | --- | --- | --- | --- | --- | --- | --- | --- |
| Cn1nnnc1NC(=O)c1nc2ccccc2n(-c2ccsc2)c1=O [Compound 5.005] | 5 (5=80-100%) | 5 (5=80-100%) | 5 (5=80-100%) | 3 (3=40-59%) | 5 (5=80-100%) | 5 (5=80-100%) | 2 (2=20-39%) | 5 (5=80-100%) | 5 (5=80-100%) | 5 (5=80-100%) | 5 (5=80-100%) | 2 (2=20-39%) |
| Cn1nnnc1NC(=O)c1nc2ccccc2n(-c2ccc3ccccc3c2)c1=O [Compound 5.031] | 1 (1=0-19%) | 5 (5=80-100%) | 1 (1=0-19%) | 1 (1=0-19%) | 5 (5=80-100%) | 1 (1=0-19%) | 1 (1=0-19%) | 5 (5=80-100%) | 3 (3=40-59%) | 5 (5=80-100%) | 1 (1=0-19%) | 1 (1=0-19%) |
| Cn1nnnc1NC(=O)c1nc2ccccc2n(-c2ccc(I)cc2)c1=O [Compound 5.042] | 5 (5=80-100%) | 5 (5=80-100%) | 5 (5=80-100%) | 2 (2=20-39%) | 5 (5=80-100%) | 3 (3=40-59%) | 2 (2=20-39%) | 5 (5=80-100%) | 5 (5=80-100%) | 5 (5=80-100%) | 3 (3=40-59%) | 2 (2=20-39%) |
| Cn1nnnc1NC(=O)c1nc2ccccc2n(-c2ccc(F)cc2)c1=O [Compound 5.029] | 5 (5=80-100%) | 5 (5=80-100%) | 5 (5=80-100%) | 5 (5=80-100%) | 5 (5=80-100%) | 5 (5=80-100%) | 5 (5=80-100%) | 5 (5=80-100%) | 5 (5=80-100%) | 5 (5=80-100%) | 5 (5=80-100%) | 4 (4=60-79%) |
| Cn1nnnc1NC(=O)c1nc2ccccc2n(-c2cccc(C#N)c2)c1=O [Compound 5.021] | 5 (5=80-100%) | 5 (5=80-100%) | 5 (5=80-100%) | 5 (5=80-100%) | 5 (5=80-100%) | 5 (5=80-100%) | 5 (5=80-100%) | 5 (5=80-100%) | 5 (5=80-100%) | 5 (5=80-100%) | 2 (2=20-39%) | 4 (4=60-79%) |
| Cn1nnnc1NC(=O)c1nc2ccccc2n(-c2cccc(Cl)c2)c1=O [Compound 5.016] | 5 (5=80-100%) | 5 (5=80-100%) | 5 (5=80-100%) | 5 (5=80-100%) | 5 (5=80-100%) | 5 (5=80-100%) | 4 (4=60-79%) | 5 (5=80-100%) | 5 (5=80-100%) | 5 (5=80-100%) | 5 (5=80-100%) | 5 (5=80-100%) |
| Cn1nnnc1NC(=O)c1cc2ccncc2n(-c2ccccc2)c1=O [Compound 8.001] | 1 (1=0-19%) | 2 (2=20-39%) | 1 (1=0-19%) | 1 (1=0-19%) | 5 (5=80-100%) | 1 (1=0-19%) | 1 (1=0-19%) | 5 (5=80-100%) | 3 (3=40-59%) | 5 (5=80-100%) | 4 (4=60-79%) | 1 (1=0-19%) |
| Cn1nnnc1NC(=O)c1nc2ccc(Cl)cc2n(-c2ccccc2)c1=O [Compound 5.008] | 5 (5=80-100%) | 5 (5=80-100%) | 5 (5=80-100%) | 5 (5=80-100%) | 5 (5=80-100%) | 2 (2=20-39%) | 2 (2=20-39%) | 5 (5=80-100%) | 5 (5=80-100%) | 5 (5=80-100%) | 2 (2=20-39%) | 2 (2=20-39%) |
| Cn1nnnc1NC(=O)c1nc2ccccc2n(-c2cccc(Br)c2)c1=O [Compound 5.024] | 5 (5=80-100%) | 5 (5=80-100%) | 5 (5=80-100%) | 5 (5=80-100%) | 5 (5=80-100%) | 5 (5=80-100%) | 5 (5=80-100%) | 5 (5=80-100%) | 4 (4=60-79%) | 5 (5=80-100%) | 5 (5=80-100%) | 5 (5=80-100%) |
| Cn1nnnc1NC(=O)c1nc2ccccc2n(-c2ccc(C(F)(F)F)c(Cl)c2)c1=O [Compound 5.040] | 2 (2=20-39%) | 5 (5=80-100%) | 3 (3=40-59%) | 1 (1=0-19%) | 5 (5=80-100%) | 1 (1=0-19%) | 1 (1=0-19%) | 5 (5=80-100%) | 5 (5=80-100%) | 5 (5=80-100%) | 2 (2=20-39%) | 2 (2=20-39%) |
| Cn1nnnc1NC(=O)c1nc2cc(C(F)(F)F)ccc2n(C)c1=O [Compound 3.001] | 2 (2=20-39%) | 3 (3=40-59%) | 1 (1=0-19%) | 1 (1=0-19%) | 2 (2=20-39%) | 2 (2=20-39%) | 1 (1=0-19%) | 4 (4=60-79%) | 3 (3=40-59%) | 4 (4=60-79%) | 2 (2=20-39%) | 1 (1=0-19%) |
| Cn1nnnc1NC(=O)c1nc2ccccc2n(-c2ccc(Br)cc2)c1=O [Compound 5.032] | 5 (5=80-100%) | 5 (5=80-100%) | 5 (5=80-100%) | 5 (5=80-100%) | 5 (5=80-100%) | 4 (4=60-79%) | 4 (4=60-79%) | 5 (5=80-100%) | 5 (5=80-100%) | 5 (5=80-100%) | 3 (3=40-59%) | 2 (2=20-39%) |
